Paper PMC9405955, “Plasmodium falciparum Nicotinamidase as A Novel Antimalarial Target” (Biomolecules, 2022)

B1: P. falciparum nicotinamidase (PfNic) (Plasmodium falciparum 3D7) (protein)
chain: MKCLVIVDAQNDFLPNGSFNSKAEYLDVIDKINSVRLNLYKCTEESLLKLKDCKDIIEEKGGKKYEYMYEDKDIVEYSKCHNIIDDENNNEDIYLFPMNENIHNNINGYPHDCMNNIYDSSNINCYNNNNNEINNNCNNNYDNNVVNLTNHTEHADHIIDYNNIKTNSDDLKFGMCILTVDYHPAMHISFAETHRLLYEKICNNNLKCNNINNKSNMNCYDMNNSENSCINNNENEEMKKIDVNNNLIIEETEIESFLKNNNIHTLSDVLNNIDKIKSSQIIYKNIKSKNDIMEYHKINFLNENIDVWPVHCVKNTYGCKVHNKLIRHINDIIIKKAQKENKDSHTIFENEQVNGNIQKLLKQKNITSVYVCGFIFEYCVKETALSFLNLGYETYIVEDATAYLFDRQEDKLFLQNKGIKFINSSKLLS
notes: 429 amino acids, N-terminal histidine tag (pet28a), expressed in Rosetta (DE3) E. coli

How the values were obtained:
[1] = molecular target: T1, P. falciparum nicotinamidase (PfNic) (Plasmodium falciparum, UniProt O97284); test: […]-nicotinamide to nicotinic acid conversion (HPLC, scintillation counting) in lysates of parasites pre-treated with […] compound for […] h; format: cell-based
T1 construct: gene PF3D7_0320500
T1 sequence (O97284 1-429): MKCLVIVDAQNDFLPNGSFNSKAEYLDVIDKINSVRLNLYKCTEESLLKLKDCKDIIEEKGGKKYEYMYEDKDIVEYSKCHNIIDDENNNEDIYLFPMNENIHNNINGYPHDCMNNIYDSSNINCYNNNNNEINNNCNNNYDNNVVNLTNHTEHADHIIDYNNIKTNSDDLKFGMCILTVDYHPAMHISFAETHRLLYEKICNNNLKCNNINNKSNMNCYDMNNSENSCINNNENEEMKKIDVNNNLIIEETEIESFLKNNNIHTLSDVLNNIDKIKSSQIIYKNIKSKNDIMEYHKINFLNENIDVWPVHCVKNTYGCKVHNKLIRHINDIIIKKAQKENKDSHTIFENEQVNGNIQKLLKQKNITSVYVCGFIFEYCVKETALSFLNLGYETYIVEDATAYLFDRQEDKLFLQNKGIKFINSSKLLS

[2] = substrate: NC(=O)c1cccnc1; test: purified protein; format: biochemical, Plasmodium falciparum

Row | Molecule | 14C-nicotinamide to nicotinic acid conversion (HPLC, scintillation counting) in [1] | Km [2] [µM]
1 | Cc1cncc(C=O)c1 [5-methyl-nicotinaldehyde] | indicating 5-Me-nicotinaldehyhde was able to inhibit P. falciparum nicotinamidase in the lysate | 
2 | B1 |  | 3.0 ± 0.9
